Assays:
[1] = system: human cervical cancer cells (Hela); assay: Boyden chamber invasion assay, Hela; format: cell-based; conditions: 2.5, 5 and 10 μM, 24 h, dose dependency (FIG. 2E)
Description: (§1) Cells were harvested by […] and resuspended in a serum-free medium with 0.1% BSA. Then, […] of cell suspension (2×10^5 cells) was seeded into the upper insert of SPLInsert with Polyethylene terephthalate (PET) membrane (pore size: 8.0 μm) (SPL Lifesciences, Korea) pre-coated with matrigel (BD Biosciences, San Jose, Calif.). The bottom well of 24-well plate of SPLInsert was filled with cell medium containing 10% FBS with different concentrations of isoplumbagin (5, 7.5 and 10 μM, Experimental group of oral squamous cell carcinoma cells (OC3-IV2); 2.5, 5 and 10 μM, Experimental groups of human primary glioblastoma cells (U87), human non-small cell lung carcinoma cells (H1299), human prostate cancer cells (PC3) and human cervical cancer cells (Hela)) or without isoplumbagin (DMSO added). […] Number of cells was counted using Image J. Relative invasion ability was calculated as cell number per area.
(§2) FIGS. 2A-2E show the inhibitory effect of different doses of isoplumbagin on invasion for oral squamous cell carcinoma cells (OC3-IV2), human primary glioblastoma cells (U87), human non-small cell lung carcinoma cells (H1299), prostate cancer cells (PC3) and cervical cancer cells (Hela) assessed with the Boyden chamber assays. *Compared with solvent control (DMSO). […]

[2] = system: human prostate cancer cells (PC3); assay: Mitochondrial morphology and distribution by immunofluorescence staining, PC3; format: cell-based; conditions: 1 μM or 2.5 μM, 24 hours, anti-TOM20 staining
Description: (§3) The effects of isoplumbagin on mitochondrial morphology and distribution of OC3-IV2, U87, H1299 and PC3 cell lines were measured by immunofluorescence staining After OC3-IV2, U87, H1299, and PC3 cells were treated with DMSO, 1 μM, or 2.5 μM isoplumbagin for 24 hours, cells were fixed by 4% (v/v) paraformaldehyde and permeabilized by 0.1% (v/v) Triton X-100. Cells were incubated in blocking buffer containing 1% bovine serum albumin. After blocking, cells were incubated overnight with indicated primary antibodies against TOM20 (a mitochondria marker, sc-11415, Santa Cruz), and then incubated with Alexa Fluor 488-conjugated secondary antibodies (A11001, Invitrogen). Nucleus was stained with DAPI, actin was stained with rhodamine phalloidin (A12379, Invitrogen) and cells were mounted using Prolong Gold reagent (P36930, Invitrogen). 63 images were taken by LSM800 confocal microscopes (Zeiss).
(§4) FIGS. 5A-5D show the effect of isoplumbagin on mitochondrial morphogenesis and distribution of oral squamous cell carcinoma cells (OC3-IV2), human primary glioblastoma cells (U87), human non-small cell lung carcinoma cells (H1299) and human prostate cancer cells (PC3). Cells treated with either solvent control (DMSO) or isoplumbagin were determined by immunofluorescence staining using anti-TOM20 (mitochondria, green) antibody, rhodamine phalloidin (actin, red) and DAPI (nucleus, blue). […]

[3] = system: oral squamous cell carcinoma cells (OC3-IV2); assay: Mitochondrial morphology and distribution by immunofluorescence staining, OC3-IV2; format: cell-based, human; conditions: 1 μM or 2.5 μM, 24 hours, anti-TOM20 staining
Description: as §3, §4

[4] = system: human prostate cancer cells (PC3); assay: Boyden chamber invasion assay, PC3; format: cell-based; conditions: 2.5, 5 and 10 μM, 24 h, dose dependency (FIG. 2D)
Description: as §1, §2

OC3-IV2 cells = assay: Oral orthotopic OC3-IV2 xenograft mice model; format: in vivo, CB17/lcr-Prkdc^scid/CrlNarl mice; conditions: 2 mg/kg intraperitoneal once every 3 days, day 0-18
Description: In this example, the anti-tumor effect of isoplumbagin in xenograft mice model was explored. In oral orthotopic xenograft CB17/lcr-Prkdc^scid/CrlNarl mice model, 1×10^6 OC3-IV2 cells were harvested and re-suspended in 100 μl PBS. The cells were injected through the oral buccal mucosa into six-week-old male CB17/lcr-Prkdc^scid/CrlNarl mice (National Laboratory Animal Center, Taiwan). When the tumor size in oral buccal reached approximately 25 mm^3 at 14 days after inoculation of the OC3-IV2 cells, mice were randomly assigned into two groups (n=3 per group): vehicle (DMSO) control group and 2 mg/kg isoplumbagin group. Treatments were given via intraperitoneal injection once every 3 days in the morning for 2 weeks. During this period, mice weights and tumor volumes (length×width^2/2) were recorded every 3 days. At the end of the study (on day 18), the mice were sacrificed by carbon dioxide asphyxiation. […]
FIGS. 7A-7D show the anti-tumor effect of isoplumbagin in xenograft mice model. […] Tumor volume (FIG. 7A) and body weight (FIG. 7B) were measured from day 0-18 after treatment. […]

With `CC1=CC(=O)c2cccc(O)c2C1=O` [isoplumbagin, 5-hydroxy-3-methyl-1,4-naphthoquinone] the “cancer cells migrating through the membrane (invasion)” value [1] was “decrease significantly”, the “mitochondrial morphogenesis and distribution” value [2] was “can alter the mitochondrial morphogenesis and distribution” and the “mitochondrial morphogenesis and distribution” value [3] was “can alter the mitochondrial morphogenesis and distribution”. For the same molecule, the “cancer cells migrating through the membrane (invasion)” value [4] was “decrease significantly” and the “tumor growth (tumor volume, tumor weight)” value (OC3-IV2 cells) was “can effectively inhibit tumor growth”.

From patent US20210113492A1, “METHOD FOR INHIBITING PROLIFERATION AND METASTASIS OF CANCER CELLS BY USING NAPHTHOQUINONE DERIVATIVE” (National Tsing Hua University, priority 2019, published 2021)
